Experiments:
[1] = tested on: ERK phosphorylation in KYSE-520 cells; assay: Phospho-ERK cellular assay; format: cell-based; settings: Homo sapiens, KYSE-520, 2 h, KYSE-520 cells, 2 h at 37° C., phospho-ERK1/2 (Thr202/Tyr204) TR-FRET; read-out: PERK IC50
Method in brief: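 TR-FRET read-out of ERK1/2 Thr202/Tyr204 phosphorylation was taken after overnight antibody incubation at room temperature. Before that, KYSE-520 cells were treated 2 h at 37 °C with compound dilutions and lysed 30 min. Percent inhibition relative to vehicle and cell-free wells was fitted four-parametrically to give IC50.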

[2] = target: SHP-2 enzyme (Met1-Leu525) (Homo sapiens (Human), UniProt Q06124); assay: SHP2 inhibition enzymatic assay; format: biochemical; settings: 0.5 nM SHP-2 activated by 500 nM IRS1 peptide, 75 μM DiFMUP substrate; read-out: SHP2wt-IC50
Method in brief: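 Compounds were preincubated 30 min with 0.5 nM SHP-2 (Met1-Leu525) plus 500 nM IRS1 activating peptide (pH 7.2 HEPES, 5 mM DTT), then 75 μM DiFMUP substrate reacted 30 min at room temperature. After bpV quench, DiFMUP fluorescence gave % inhibition; four-parameter logistic fit yielded IC50.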

Sequence of SHP-2 enzyme (Met1-Leu525) (Q06124 1-525): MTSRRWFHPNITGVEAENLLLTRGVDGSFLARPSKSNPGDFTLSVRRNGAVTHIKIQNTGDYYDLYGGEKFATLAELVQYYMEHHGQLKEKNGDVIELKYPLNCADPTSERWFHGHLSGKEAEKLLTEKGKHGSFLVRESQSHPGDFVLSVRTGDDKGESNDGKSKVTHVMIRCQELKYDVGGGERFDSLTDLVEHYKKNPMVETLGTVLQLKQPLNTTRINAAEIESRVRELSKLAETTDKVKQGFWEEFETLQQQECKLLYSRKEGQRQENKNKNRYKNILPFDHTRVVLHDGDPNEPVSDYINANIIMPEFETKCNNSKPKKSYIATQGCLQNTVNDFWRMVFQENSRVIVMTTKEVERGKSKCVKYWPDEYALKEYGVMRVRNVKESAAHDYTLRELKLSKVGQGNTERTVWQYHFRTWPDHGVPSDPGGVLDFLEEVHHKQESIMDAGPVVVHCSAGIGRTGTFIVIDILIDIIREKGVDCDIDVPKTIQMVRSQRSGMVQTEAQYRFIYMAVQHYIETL

SMILES	IC50 [1]	IC50 [2]
NC[C@]1(c2ccccc2F)[C@@H]2CCN(c3cnc4c(-c5ccc(C6CC6)c6ncccc56)n[nH]c4n3)C[C@@H]21 [Example 139, ((1S,6R,7R)-3-(3-(8-cyclopropylquinolin-5-yl)-1H-pyrazolo[3,4-b]pyrazin-6-yl)-7-(2-fluorophenyl)-3-azabicyclo[4.1.0]heptan-7-yl)methanamine]	< 1000 nM	< 500 nM
NC[C@]1(c2ncccc2F)[C@@H]2CCN(c3cnc4c(-c5cccn6nccc56)n[nH]c4n3)C[C@@H]21 [Example 140, ((1S,6R,7S)-7-(3-fluoropyridin-2-yl)-3-(3-(pyrazolo[1,5-a]pyridin-4-yl)-1H-pyrazolo[3,4-b]pyrazin-6-yl)-3-azabicyclo[4.1.0]heptan-7-yl)methanamine]	< 1000 nM	< 500 nM
NC[C@]1(c2ccccc2F)[C@@H]2CCN(c3cnc4c(-c5ccc6ncccc6c5)n[nH]c4n3)C[C@@H]21 [Example 141, ((1S,6R,7R)-7-(2-fluorophenyl)-3-(3-(quinolin-6-yl)-1H-pyrazolo[3,4-b]pyrazin-6-yl)-3-azabicyclo[4.1.0]heptan-7-yl)methanamine]	< 1000 nM	< 500 nM
CC(O)c1ccc(-c2n[nH]c3nc(N4CC[C@@H]5[C@H](C4)[C@@]5(CN)c4ccccc4F)cnc23)c2cccnc12 (stereo partly drawn) [Example 142, 1-(5-(6-((1S,6R,7R)-7-(aminomethyl)-7-(2-fluorophenyl)-3-azabicyclo[4.1.0]heptan-3-yl)-1H-pyrazolo[3,4-b]pyrazin-3-yl)quinolin-8-yl)ethan-1-ol]	< 1000 nM	< 500 nM
NC[C@]1(c2ccccc2F)[C@@H]2CCN(c3cnc4c(-c5cccc6nccn56)n[nH]c4n3)C[C@@H]21 [Example 143, ((1S,6R,7R)-7-(2-fluorophenyl)-3-(3-(imidazo[1,2-a]pyridin-5-yl)-1H-pyrazolo[3,4-b]pyrazin-6-yl)-3-azabicyclo[4.1.0]heptan-7-yl)methanamine]	< 1000 nM	< 500 nM
NC[C@]1(c2ncccc2F)[C@@H]2CCN(c3cnc4c(-c5ccc(OC(F)(F)F)c6ncccc56)n[nH]c4n3)C[C@@H]21 [Example 144, ((1S,6R,7S)-7-(3-fluoropyridin-2-yl)-3-(3-(8-(trifluoromethoxy)quinolin-5-yl)-1H-pyrazolo[3,4-b]pyrazin-6-yl)-3-azabicyclo[4.1.0]heptan-7-yl)methanamine]	< 1000 nM	< 500 nM
Cc1c(-c2n[nH]c3nc(N4CC[C@@H]5[C@H](C4)[C@@]5(CN)c4ccccc4F)cnc23)ccc2nn(C)cc12 [Example 145, ((1S,6R,7R)-3-(3-(2,4-dimethyl-2H-indazol-5-yl)-1H-pyrazolo[3,4-b]pyrazin-6-yl)-7-(2-fluorophenyl)-3-azabicyclo[4.1.0]heptan-7-yl)methanamine]	< 1000 nM	< 500 nM
COc1ccc(-c2n[nH]c3nc(N4CC[C@@H]5[C@H](C4)[C@@]5(CN)c4ccccc4F)cnc23)c2cccnc12 [Example 146, ((1S,6R,7R)-7-(2-fluorophenyl)-3-(3-(8-methoxyquinolin-5-yl)-1H-pyrazolo[3,4-b]pyrazin-6-yl)-3-azabicyclo[4.1.0]heptan-7-yl)methanamine]	< 1000 nM	< 500 nM
COc1cc(-c2n[nH]c3nc(N4CC[C@@H]5[C@H](C4)[C@@]5(CN)c4ccccc4F)cnc23)c2ccnn2c1 [Example 147, ((1S,6R,7R)-7-(2-fluorophenyl)-3-(3-(6-methoxypyrazolo[1,5-a]pyridin-4-yl)-1H-pyrazolo[3,4-b]pyrazin-6-yl)-3-azabicyclo[4.1.0]heptan-7-yl)methanamine]	< 1000 nM	< 500 nM
Cc1cc([C@@]2(CN)[C@@H]3CCN(c4cnc5c(-c6cncc7ncccc67)n[nH]c5n4)C[C@@H]32)no1 [Example 148, ((1S,6R,7S)-3-(3-(1,7-naphthyridin-5-yl)-1H-pyrazolo[3,4-b]pyrazin-6-yl)-7-(5-methylisoxazol-3-yl)-3-azabicyclo[4.1.0]heptan-7-yl)methanamine]	< 1000 nM	< 500 nM
COc1ccc2cc(-c3n[nH]c4nc(N5CC[C@@H]6[C@H](C5)[C@@]6(CN)c5cc(C)on5)cnc34)ccc2n1 [Example 149, ((1S,6R,7S)-3-(3-(2-methoxyquinolin-6-yl)-1H-pyrazolo[3,4-b]pyrazin-6-yl)-7-(5-methylisoxazol-3-yl)-3-azabicyclo[4.1.0]heptan-7-yl)methanamine]	< 1000 nM	< 500 nM
Cc1cc([C@@]2(CN)[C@@H]3CCN(c4cnc5c(-c6ccc7nc(C(F)(F)F)ccc7c6)n[nH]c5n4)C[C@@H]32)no1 [Example 150, ((1S,6R,7S)-7-(5-methylisoxazol-3-yl)-3-(3-(2-(trifluoromethyl)quinolin-6-yl)-1H-pyrazolo[3,4-b]pyrazin-6-yl)-3-azabicyclo[4.1.0]heptan-7-yl)methanamine]	< 1000 nM	< 500 nM
COc1ccc2cc(-c3n[nH]c4nc(N5CC[C@@H]6[C@H](C5)[C@@]6(CN)c5cc(C)on5)cnc34)cnc2c1 [Example 151, ((1S,6R,7S)-3-(3-(7-methoxyquinolin-3-yl)-1H-pyrazolo[3,4-b]pyrazin-6-yl)-7-(5-methylisoxazol-3-yl)-3-azabicyclo[4.1.0]heptan-7-yl)methanamine]	< 1000 nM	< 500 nM
Cc1cc([C@@]2(CN)[C@@H]3CCN(c4cnc5c(-c6cnc7cc(C(F)(F)F)ccc7c6)n[nH]c5n4)C[C@@H]32)no1 [Example 152, ((1S,6R,7S)-7-(5-methylisoxazol-3-yl)-3-(3-(7-(trifluoromethyl)quinolin-3-yl)-1H-pyrazolo[3,4-b]pyrazin-6-yl)-3-azabicyclo[4.1.0]heptan-7-yl)methanamine]	< 1000 nM	< 500 nM
NC[C@]1(c2ccccc2F)[C@@H]2CCN(c3cnc4c(-c5nccc6ncccc56)n[nH]c4n3)C[C@@H]21 [Example 153, ((1S,6R,7R)-3-(3-(1,6-naphthyridin-5-yl)-1H-pyrazolo[3,4-b]pyrazin-6-yl)-7-(2-fluorophenyl)-3-azabicyclo[4.1.0]heptan-7-yl)methanamine]	< 1000 nM	< 500 nM
NC[C@]1(c2ccccc2F)[C@@H]2CCN(c3cnc4c(-c5ccnc6c5CCO6)n[nH]c4n3)C[C@@H]21 [Example 154, ((1S,6R,7R)-3-(3-(2,3-dihydrofuro[2,3-b]pyridin-4-yl)-1H-pyrazolo[3,4-b]pyrazin-6-yl)-7-(2-fluorophenyl)-3-azabicyclo[4.1.0]heptan-7-yl)methanamine]	< 1000 nM	< 500 nM
NC[C@]1(c2ccccc2F)[C@@H]2CCN(c3cnc4c(-c5ccnc6cnccc56)n[nH]c4n3)C[C@@H]21 [Example 155, ((1S,6R,7R)-3-(3-(1,7-naphthyridin-4-yl)-1H-pyrazolo[3,4-b]pyrazin-6-yl)-7-(2-fluorophenyl)-3-azabicyclo[4.1.0]heptan-7-yl)methanamine]	< 1000 nM	< 500 nM
Cc1cc([C@@]2(CN)[C@@H]3CCN(c4cnc5c(-c6ccc(F)c7ncccc67)c[nH]c5n4)C[C@@H]32)no1 [Example 156, ((1S,6R,7S)-3-(7-(8-fluoroquinolin-5-yl)-5H-pyrrolo[2,3-b]pyrazin-3-yl)-7-(5-methylisoxazol-3-yl)-3-azabicyclo[4.1.0]heptan-7-yl)methanamine]	< 1000 nM	< 500 nM
